According to patent US11572398B2, “GLP-1 derivatives and uses thereof” (Novo Nordisk A/S, priority 2014, dated 2023):
Where two headings read alike, the source gives them in different places.

Key:
human GLP-1 receptor [1] = target: T1, human GLP-1 receptor (Homo sapiens, UniProt P43220); test: In vitro potency: CRE luciferase reporter gene assay in BHK cells expressing the human GLP-1 receptor; type: cell-based
T1 construct: expressed in transfected cells; host or cells: BHK cells (parent line BHKTS13), clone FCW467-12A; membrane preparation
Procedure, shortened: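 Whole-cell assay in stably transfected BHK cells carrying CRE-driven firefly luciferase, 5×10^3 cells/well, in assay buffer with 2% ovalbumin and 0.2% Pluronic F-68. Compound working solutions were 0.2 μM.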

human GLP-1 receptor [2] = target: T1, human GLP-1 receptor; test: GLP-1 receptor binding: competitive binding assay (125I-GLP-1, SPA) on isolated membranes at low and high HSA
[3] = Low HSA IC50, low HSA (max. 0.001% final assay concentration)
[4] = whole cell reporter gene assay, BHK cells, human GLP-1 receptor, average of at least two replicates, read-out: EC50
[5] = high HSA (2.0% final assay concentration), read-out: High HSA IC50

T1 sequence (P43220 24-463): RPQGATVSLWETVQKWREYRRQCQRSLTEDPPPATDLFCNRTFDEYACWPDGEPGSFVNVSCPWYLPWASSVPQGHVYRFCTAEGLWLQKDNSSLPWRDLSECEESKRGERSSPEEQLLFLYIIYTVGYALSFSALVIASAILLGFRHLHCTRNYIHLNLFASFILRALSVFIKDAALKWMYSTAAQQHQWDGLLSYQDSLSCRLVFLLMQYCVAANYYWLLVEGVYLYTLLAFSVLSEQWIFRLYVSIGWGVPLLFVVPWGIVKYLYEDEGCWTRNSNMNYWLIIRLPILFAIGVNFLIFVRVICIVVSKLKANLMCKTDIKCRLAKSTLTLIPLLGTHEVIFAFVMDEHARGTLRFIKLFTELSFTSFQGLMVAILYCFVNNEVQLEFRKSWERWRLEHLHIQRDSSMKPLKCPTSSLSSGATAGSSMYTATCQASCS

SMILES	EC50 (human GLP-1 receptor [1])	IC50 (human GLP-1 receptor [2]; High HSA IC50, high HSA (2.0% final assay concentration))	IC50 (human GLP-1 receptor [2]; [3])	EC50 (human GLP-1 receptor [1]; [4])	IC50 (human GLP-1 receptor [2]; [5])
CC[C@H](C)[C@H](NC(=O)[C@H](Cc1ccccc1)NC(=O)[C@H](CCC(=O)O)NC(=O)[C@H](CCCNC(=N)N)NC(=O)[C@H](C)NC(=O)[C@H](C)NC(=O)[C@H](CCC(N)=O)NC(=O)[C@H](CCC(=O)O)NC(=O)[C@H](CCC(=O)O)NC(=O)[C@H](CC(C)C)NC(=O)[C@H](Cc1ccc(O)cc1)NC(=O)[C@H](CO)NC(=O)[C@H](CO)NC(=O)[C@@H](NC(=O)[C@H](CC(=O)O)NC(=O)[C@H](CO)NC(=O)[C@@H](NC(=O)[C@H](Cc1ccccc1)NC(=O)[C@@H](NC(=O)CNC(=O)[C@H](CCC(=O)O)NC(=O)C(C)(C)NC(=O)[C@@H](N)Cc1c[nH]cn1)[C@@H](C)O)[C@@H](C)O)C(C)C)C(=O)N[C@@H](C)C(=O)N[C@@H](Cc1c[nH]c2ccccc12)C(=O)N[C@@H](CC(C)C)C(=O)N[C@H](C(=O)N[C@@H](CCCNC(=N)N)C(=O)NCC(=O)N[C@@H](CCCNC(=N)N)C(=O)N[C@@H](CCCCNC(=O)CN(CCCNC(=O)COCCOCCNC(=O)COCCOCCNC(=O)COCCOCCNC(=O)COCCOCCNC(=O)COCCOCCNC(=O)COCCOCCNC(=O)CC[C@H](NC(=O)[C@H]1CC[C@H](CNC(=O)CCCNC(=O)CCCCCCCCCCCCCCCS(=O)(=O)O)CC1)C(=O)O)CCCNC(=O)COCCOCCNC(=O)COCCOCCNC(=O)COCCOCCNC(=O)COCCOCCNC(=O)COCCOCCNC(=O)COCCOCCNC(=O)CC[C@H](NC(=O)[C@H]1CC[C@H](CNC(=O)CCCNC(=O)CCCCCCCCCCCCCCCS(=O)(=O)O)CC1)C(=O)O)C(=O)O)C(C)C [Example 21]	0.0015 nM	16 nM	0.13 nM	–	–
CC[C@H](C)[C@H](NC(=O)[C@H](Cc1ccccc1)NC(=O)[C@H](CCC(=O)O)NC(=O)[C@H](CCCNC(=N)N)NC(=O)[C@H](C)NC(=O)[C@H](C)NC(=O)[C@H](CCC(N)=O)NC(=O)[C@H](CCC(=O)O)NC(=O)[C@H](CCC(=O)O)NC(=O)[C@H](CC(C)C)NC(=O)[C@H](Cc1ccc(O)cc1)NC(=O)[C@H](CO)NC(=O)[C@H](CO)NC(=O)[C@@H](NC(=O)[C@H](CC(=O)O)NC(=O)[C@H](CO)NC(=O)[C@@H](NC(=O)[C@H](Cc1ccccc1)NC(=O)[C@@H](NC(=O)CNC(=O)[C@H](CCC(=O)O)NC(=O)C(C)(C)NC(=O)[C@@H](N)Cc1c[nH]cn1)[C@@H](C)O)[C@@H](C)O)C(C)C)C(=O)N[C@@H](C)C(=O)N[C@@H](Cc1c[nH]c2ccccc12)C(=O)N[C@@H](CC(C)C)C(=O)N[C@H](C(=O)N[C@@H](CCCNC(=N)N)C(=O)NCC(=O)N[C@@H](CCCNC(=N)N)C(=O)N[C@@H](CCCCNC(=O)CN(CCCNC(=O)COCCOCCNC(=O)COCCOCCNC(=O)COCCOCCNC(=O)COCCOCCNC(=O)CC[C@H](NC(=O)[C@H]1CC[C@H](CNC(=O)CCCCCCCCCCCCCCCS(=O)(=O)O)CC1)C(=O)O)CCCNC(=O)COCCOCCNC(=O)COCCOCCNC(=O)COCCOCCNC(=O)COCCOCCNC(=O)CC[C@H](NC(=O)[C@H]1CC[C@H](CNC(=O)CCCCCCCCCCCCCCCS(=O)(=O)O)CC1)C(=O)O)C(=O)O)C(C)C [Example 22, N{Epsilon-37}-[2-[bis[3-[[2-[2-[2-[[2-[2-[2-[[2-[2-[2-[[2-[2-[2-[[(4S)-4-carboxy-4-[[4-[(16-sulfohexadecanoylamino)methyl]cyclohexanecarbonyl]amino]butanoyl]amino]ethoxy]ethoxy]acetyl]amino]ethoxy]ethoxy]acetyl]amino]ethoxy]ethoxy]acetyl]amino]ethoxy]ethoxy]acetyl]amino]propyl]amino]acetyl]-[Aib8,Glu22,Arg26,Arg34,Lys37]-GLP-1-(7-37)-peptide]	–	–	0.12 nM	0.0016 nM	47 nM
CC[C@H](C)[C@H](NC(=O)[C@H](Cc1ccccc1)NC(=O)[C@H](CCC(=O)O)NC(=O)[C@H](CCCNC(=N)N)NC(=O)[C@H](C)NC(=O)[C@H](C)NC(=O)[C@H](CCC(N)=O)NC(=O)[C@H](CCC(=O)O)NC(=O)[C@H](CCC(=O)O)NC(=O)[C@H](CC(C)C)NC(=O)[C@H](Cc1ccc(O)cc1)NC(=O)[C@H](CO)NC(=O)[C@H](CO)NC(=O)[C@@H](NC(=O)[C@H](CC(=O)O)NC(=O)[C@H](CO)NC(=O)[C@@H](NC(=O)[C@H](Cc1ccccc1)NC(=O)[C@@H](NC(=O)CNC(=O)[C@H](CCC(=O)O)NC(=O)C(C)(C)NC(=O)[C@@H](N)Cc1c[nH]cn1)[C@@H](C)O)[C@@H](C)O)C(C)C)C(=O)N[C@@H](C)C(=O)N[C@@H](Cc1c[nH]c2ccccc12)C(=O)N[C@@H](CC(C)C)C(=O)N[C@H](C(=O)N[C@@H](CCCNC(=N)N)C(=O)NCC(=O)N[C@@H](CCCNC(=N)N)C(=O)N[C@@H](CCCCNC(=O)CN(CCCNC(=O)COCCOCCNC(=O)COCCOCCNC(=O)COCCOCCNC(=O)COCCOCCNC(=O)COCCOCCNC(=O)CC[C@H](NC(=O)[C@H]1CC[C@H](CNC(=O)CCCCCCCCCCCCCCCS(=O)(=O)O)CC1)C(=O)O)CCCNC(=O)COCCOCCNC(=O)COCCOCCNC(=O)COCCOCCNC(=O)COCCOCCNC(=O)COCCOCCNC(=O)CC[C@H](NC(=O)[C@H]1CC[C@H](CNC(=O)CCCCCCCCCCCCCCCS(=O)(=O)O)CC1)C(=O)O)C(=O)O)C(C)C [Example 23, N{Epsilon-37}-[2-[bis[3-[[2-[2-[2-[[2-[2-[2-[[2-[2-[2-[[2-[2-[2-[[2-[2-[2-[[(4S)-4-carboxy-4-[[4-[(16-sulfohexadecanoylamino)methyl]cyclohexanecarbonyl]amino]butanoyl]amino]ethoxy]ethoxy]acetyl]amino]ethoxy]ethoxy]acetyl]amino]ethoxy]ethoxy]acetyl]amino]ethoxy]ethoxy]acetyl]amino]ethoxy]ethoxy]acetyl]amino]propyl]amino]acetyl]-[Aib8,Glu22,Arg26,Arg34,Lys37]-GLP-1-(7-37)-peptide]	–	–	0.14 nM	0.0014 nM	16 nM
CC[C@H](C)[C@H](NC(=O)[C@H](Cc1ccccc1)NC(=O)[C@H](CCC(=O)O)NC(=O)[C@H](CCCNC(=N)N)NC(=O)[C@H](C)NC(=O)[C@H](C)NC(=O)[C@H](CCC(N)=O)NC(=O)[C@H](CCC(=O)O)NC(=O)[C@H](CCC(=O)O)NC(=O)[C@H](CC(C)C)NC(=O)[C@H](Cc1ccc(O)cc1)NC(=O)[C@H](CO)NC(=O)[C@H](CO)NC(=O)[C@@H](NC(=O)[C@H](CC(=O)O)NC(=O)[C@H](CO)NC(=O)[C@@H](NC(=O)[C@H](Cc1ccccc1)NC(=O)[C@@H](NC(=O)CNC(=O)[C@H](CCC(=O)O)NC(=O)C(C)(C)NC(=O)[C@@H](N)Cc1c[nH]cn1)[C@@H](C)O)[C@@H](C)O)C(C)C)C(=O)N[C@@H](C)C(=O)N[C@@H](Cc1c[nH]c2ccccc12)C(=O)N[C@@H](CC(C)C)C(=O)N[C@H](C(=O)N[C@@H](CCCNC(=N)N)C(=O)NCC(=O)N[C@@H](CCCNC(=N)N)C(=O)N[C@@H](CCCCNC(=O)CN(CCCNC(=O)COCCOCCNC(=O)COCCOCCNC(=O)COCCOCCNC(=O)COCCOCCNC(=O)COCCOCCNC(=O)COCCOCCNC(=O)CC[C@H](NC(=O)[C@H]1CC[C@H](CNC(=O)CCCCCCCCCCCCCCCS(=O)(=O)O)CC1)C(=O)O)CCCNC(=O)COCCOCCNC(=O)COCCOCCNC(=O)COCCOCCNC(=O)COCCOCCNC(=O)COCCOCCNC(=O)COCCOCCNC(=O)CC[C@H](NC(=O)[C@H]1CC[C@H](CNC(=O)CCCCCCCCCCCCCCCS(=O)(=O)O)CC1)C(=O)O)C(=O)O)C(C)C [Example 24]	–	–	0.16 nM	0.0018 nM	32 nM
CC[C@H](C)[C@H](NC(=O)[C@H](Cc1ccccc1)NC(=O)[C@H](CCC(=O)O)NC(=O)[C@H](CCCNC(=N)N)NC(=O)[C@H](C)NC(=O)[C@H](C)NC(=O)[C@H](CCC(N)=O)NC(=O)[C@H](CCC(=O)O)NC(=O)[C@H](CCC(=O)O)NC(=O)[C@H](CC(C)C)NC(=O)[C@H](Cc1ccc(O)cc1)NC(=O)[C@H](CO)NC(=O)[C@H](CO)NC(=O)[C@@H](NC(=O)[C@H](CC(=O)O)NC(=O)[C@H](CO)NC(=O)[C@@H](NC(=O)[C@H](Cc1ccccc1)NC(=O)[C@@H](NC(=O)CNC(=O)[C@H](CCC(=O)O)NC(=O)C(C)(C)NC(=O)[C@@H](N)Cc1c[nH]cn1)[C@@H](C)O)[C@@H](C)O)C(C)C)C(=O)N[C@@H](C)C(=O)N[C@@H](Cc1c[nH]c2ccccc12)C(=O)N[C@@H](CC(C)C)C(=O)N[C@H](C(=O)N[C@@H](CCCNC(=N)N)C(=O)NCC(=O)N[C@@H](CCCNC(=N)N)C(=O)N[C@@H](CCCCNC(=O)COCCOCCNC(=O)COCCOCCNC(=O)COCCOCCNC(=O)COCCOCCNC(=O)COCCOCCNC(=O)COCCOCCNC(=O)CN(CCCNC(=O)[C@H](CO)NC(=O)CC[C@H](NC(=O)[C@H]1CC[C@H](CNC(=O)CCCCCCCCCCCCCCCCCCC(=O)O)CC1)C(=O)O)CCCNC(=O)[C@H](CO)NC(=O)CC[C@H](NC(=O)[C@H]1CC[C@H](CNC(=O)CCCCCCCCCCCCCCCCCCC(=O)O)CC1)C(=O)O)C(=O)O)C(C)C [Example 25]	–	–	0.91 nM	0.03 nM	41 nM
